Assay results as given in patent US5939527A, “Tetrapeptides as antitumor agents” (BASF Aktiengesellschaft, priority 1996, dated 1999).

Legend:
[1] = tested on: HT-29 colon carcinoma cells; assay type: cell-based; details: HT-29 cells, 48 hours incubation, MTT; read-out: IC50 (concentration giving a T/C of 50% growth inhibition)
[2] = tested on: Human breast tumors (MX-1); assay: In vivo activity, MX-1 human breast tumor xenograft in athymic nude mice; details: subcutaneous injection, 10, 20 or 30 mg/kg, three doses per week, days 5-23
Procedure: Compounds of this invention were further tested in pre-clinical assays for in vivo activity which is indicative of clinical utility. Such assays were conducted with nude mice into which tumor tissue, preferably of human origin, had been transplanted (xenografted), as is well known in this field. Test compounds were evaluated for anti-tumor efficacy following administration to the xenograft-bearing mice.
Human breast tumors (MX-1) which had been grown in athymic nude mice were transplanted into new recipient mice, using tumor fragments which were about 50 mg in size. The day of transplantation was designated as day 0. The mice were divided into four groups of 5-10 mice each. An untreated group served as the control. Three groups were treated by subcutaneous injection of compound 1, with each group receiving three doses per week of 30, 20 or 10 mg/kg body weight. Doses were administered on days 5, 7, 9, 12, 14, 16, 19, 21 and 23 post post-implantation.
Tumor diameters and body weights were measured twice weekly. Tumor volumes were calculated using the diameters measured with Vernier calipers, and the formula
(length×width^2)/2=mm^3 of tumor volume
Mean tumor volumes are calculated for each treatment group, and T/C values determined for each group relative to the untreated control tumors.

[3] = tested on: four different human lymphoma cell lines; details: cited from earlier work
[4] = synthetic Dolastatin 10; cited from earlier work
[5] = tested on: P388 lymphocytic leukemia (PS system) cell line; details: cited from earlier work

Molecule	IC50 [1]	inhibition of tumor growth (tumor volume versus post-implantation time) [2]	inhibition of growth of human lymphoma cell lines [3]	solubility in aqueous systems [4]	growth inhibition of P388 cell line [5]
CO[C@H](CC(=O)N1CCC[C@H]1C(=O)Nc1nccs1)[C@H](C(C)C)N(C)C(=O)[C@@H](NC(=O)[C@H](C(C)C)N(C)C)C(C)C [Compound 1, (3R,4S)-4-[N-(N,N-dimethyl-L-valyl-L-valyl)-N-methylamino]-3-methoxy-5-methyl-hexanoyl prolyl-thiazolyl(2)-amide]	60 nM	significant dose-dependent inhibition of tumor growth			
Dolastatin 10			effectively inhibit	poor solubility	
Dolastatin 15			effectively inhibit		inhibits the growth
